Results reported in the NIST ThermoML archive (doi:10.1016/j.fluid.2015.07.030).

Tests used:
[1] = refractive index (other wavelength) (dimensionless); conditions: 95.99 kPa, Liquid, Wavelength=404.7 nm, Standard Abbe refractometry
[2] = Liquid; for mass density: 95.99 kPa, Vibrating tube method; for vapor or sublimation pressure: Ebulliometric method (Recirculating still)
[3] = xn = mol fraction of the nth substance listed; conditions: 293.15 K; 95.99 kPa; Liquid; Vibrating tube method; x1 = 1
[4] = refractive index (other wavelength) (dimensionless); xn = mol fraction of the nth substance listed; conditions: 95.99 kPa, Liquid, Standard Abbe refractometry, x1 = 1

OCCOCCOCCO [triethylene glycol]
Conditions | mass density, [2] [kg/m3] | refractive index, [1] | vapor or sublimation pressure, [2] [kPa]
293.15 K | 1123.12 | 1.45619 [middle of 9 runs] | –
298.15 K | 1119.01 | 1.45447 [middle of 9 runs] | –
303.15 K | 1114.79 | 1.45273 [middle of 9 runs] | –
308.15 K | 1110.81 | 1.45106 [middle of 9 runs] | –
313.15 K | 1106.7 | 1.44927 [middle of 9 runs] | –
535.65 K | – | – | 53.33
543.87 K | – | – | 66.66
551.33 K | – | – | 79.99
559.01 K | – | – | 95.99

O [water] + OCCOCCOCCO
Conditions | mass density [kg/m3]
[3] | 998.27

refractive index, [4]
Conditions | Wavelength=404.7 nm | Wavelength=435.8 nm | Wavelength=486.1 nm | Wavelength=546.1 nm | Wavelength=587.6 nm | Wavelength=589.3 nm | Wavelength=632.8 nm | Wavelength=644 nm | Wavelength=706.5 nm
293.15 K | 1.34287 | 1.34033 | 1.33728 | – | 1.33325 | 1.332 | 1.33194 | 1.33164 | 1.33018
298.15 K | 1.34223 | 1.33969 | 1.33606 | 1.33405 | 1.33262 | 1.33257 | 1.33132 | 1.33103 | 1.32956
303.15 K | 1.3416 | 1.33908 | 1.33606 | 1.33344 | 1.33203 | 1.33198 | 1.33074 | 1.33045 | 1.32898
308.15 K | 1.34092 | 1.33843 | 1.33538 | 1.33278 | 1.33136 | 1.33131 | 1.33007 | 1.32979 | 1.32834
313.15 K | 1.3402 | 1.3377 | 1.33466 | 1.33207 | 1.33066 | 1.33061 | 1.32937 | 1.32908 | 1.32764

O [water]
Conditions | refractive index, 293.15 K | refractive index, 298.15 K | refractive index, 303.15 K | refractive index, 308.15 K | refractive index, 313.15 K | vapor or sublimation pressure, 356.16 K [kPa] | vapor or sublimation pressure, 361.89 K [kPa] | vapor or sublimation pressure, 366.73 K [kPa] | vapor or sublimation pressure, 371.71 K [kPa]
[1] | 1.33325 [middle of 9 runs] | 1.33262 [middle of 9 runs] | 1.33203 [middle of 9 runs] | 1.33136 [middle of 9 runs] | 1.33066 [middle of 9 runs] | – | – | – | –
[2] | – | – | – | – | – | 53.33 | 66.66 | 79.99 | 95.99
